The values below come from patent US20180258100A1, “RAPAMYCIN ANALOGS SHOWING IMPROVED mTORC1 SPECIFICITY” (priority 2015, published 2018).

SMILES strings stand for the structures.

Series [1] is described as follows: Glucose challenge response. The format is in vivo, female C57BL/6J mice. To be noted: 2 mg/kg glucose after 1 week; rapamycin 8 mg/kg, compound 390 12 mg/kg i.p. every other day. The procedure: (§1) 10-week old female C57BL/6J mice were given intraperitoneal injections of 8 mg/kg rapamycin (LC laboratories), 12 mg/kg compound 390 or vehicle every other day for three weeks (N=5 mice/group), such as to mimic chronic exposure conditions. 24 hours after the last injection, tissues were dissected from the mice and immediately frozen in liquid nitrogen. The tissues were homogenized using the Omni TH homogenizer (Omni International) on ice in RIPA buffer and then centrifuged at 13,000 rpm for 15 minutes at 4° C. The supernatants were collected and protein concentration was determined using the DC protein assay (Biorad).
Steady state glucose levels were determined after one week from study initiation using a Bayer Contour blood glucose meter and test strips from small blood samples, which were withdrawn from a tail vein nick. […]

Series [2] concerns the target T1, mTORC1 (Mus musculus, UniProt P26883+Q9JLN9). Briefly: Western blot of mouse tissues after 3 weeks i.p. dosing, mTORC1 (P-S6/total S6). The format is in vivo, female C57BL/6J mice. The conditions noted are these: 12 mg/kg i.p. every other day for 3 weeks. As to the method: as §1
The mTORC1/2 inhibition was determined by Western blots. Equal amounts of protein were resolved by SDS-PAGE and transferred to nitrocellulose membrane using the Invitrogen Nu-Page system. The membranes were blocked for 1 h in 5% milk and incubated overnight in the appropriate antibodies. The following day, blots were washed 3 times in TBST, incubated for 2 h with secondary antibodies (donkey anti rabbit hrp conjugated), and finally washed an additional 3 times in TBST. ECL Prime (Amersham) was used to detect the proteins of interest and ImageJ software was used to quantify the band intensity of the Western blots.

A short description of series [3]: Steady state glucose levels after one week of i.p. dosing. Type of series: in vivo, female C57BL/6J mice. The conditions noted are these: 12 mg/kg i.p. every other day, versus vehicle. As to the method:
as §1
Steady state glucose levels were determined after one week from study initiation using a Bayer Contour blood glucose meter and test strips from small blood samples, which were withdrawn from a tail vein nick. At the end of the second week, the animals were challenged by administration of 2 mg/kg glucose; glucose levels were determined for two hours following the challenge at 30 min intervals.

Series [4] concerns autophagy markers (pULK/ULK, Beclin-1, Vps34, LC3B, p62). Kind of series: Autophagy markers in brain of Tg4510 mice. The format is in vivo. To be noted: 12 mg/kg i.p., 4 weeks. The procedure:
(§2) Female Tg4510 and control mice were purchased from the Jackson Laboratory (Bar Harbor, Me.). All mice were examined and weighed prior to initiation of the study to ensure adequate health and suitability and were caged under controlled temperature (20-23° C.) and relative humidity (maintained around 50%). All tests were performed during the animal's light cycle phase. Mice received every-other-day injections of either vehicle or compound 390 (12 mg/kg) in the following groups: (a) wild-type (WT) mice receiving vehicle (n=16); (b) Tg4510 mice receiving vehicle (n=15) and (c) Tg4510 mice receiving DL390 (12 mg/kg; n=15)
A number of autophagy markers were measured both in the cortex and hippocampus tissue to assess the status of the autophagic clearance mechanism across the three study groups. Specifically, pULK/ULK, Beclin-1, Vps34, LC3B and p62 were measured using the appropriate antibodies (Cell Signaling Technology).

Another series concerns the target mTORC2 complex (Mus musculus, UniProt P26883+Q9JLN9). Briefly: mTORC2 assembly: immunoprecipitation of Rictor from liver and immunoblotting for mTOR. Type of series: in vivo, male C57BL/6J mice. To be noted: liver, four weeks; rapamycin 8 mg/kg, compound 390 12 mg/kg i.p. every other day. As to the method: (§3) Fortyfive C57BL/6J male mice, housed three per cage, were weighed and their body composition was measured with an EchoMRI 3-in-1 system. […] Mice received every-other-day injections of either vehicle, rapamycin (8 mg/kg), or compound 390 (12 mg/kg). A glucose tolerance test was performed after 2 weeks (morning after the 8th injection). A pyruvate tolerance test was performed after 3 weeks. Glucose stimulated insulin secretion assay was performed after 4 weeks and additional blood was collected for whole blood analysis. Body composition was measured on day −2 and day 31.
(In general: A western blot detects proteins with antibodies after separation by electrophoresis.)

Series [5] in a line: Fat mass by EchoMRI body composition after four weeks. The format is in vivo, male C57BL/6J mice. The conditions noted are these: 4 weeks of every other day administration; rapamycin 8 mg/kg, compound 390 12 mg/kg; versus vehicle. The procedure:
Fortyfive C57BL/6J male mice, housed three per cage, were weighed and their body composition was measured with an EchoMRI 3-in-1 system. Cages were sorted into three groups—vehicle, rapamycin, and compound 390—such that the average weight was similar for all three groups. Mice received every-other-day injections of either vehicle, rapamycin (8 mg/kg), or compound 390 (12 mg/kg). A glucose tolerance test was performed after 2 weeks (morning after the 8th injection). A pyruvate tolerance test was performed after 3 weeks. Glucose stimulated insulin secretion assay was performed after 4 weeks and additional blood was collected for whole blood analysis. Body composition was measured on day −2 and day 31.

The subject of the next series is Tg4510 mice. Kind of series: Morris water maze test in Tg4510 mice. The format is in vivo. The conditions noted are these: 12 mg/kg, 4-weeks treatment, versus vehicle-treated Tg4510 mice. The procedure:
as §2
The test was performed in a circular tank, measuring 48″ in diameter. Extra-maze cues were mounted around the water tank. On 5 consecutive days of the week, test sessions were conducted with the platform submerged approximately 1.3 cm below the surface of the water. On each day, there were 4 trials, 60 s long. Approximately 15 min elapsed between each trial. On the fifth day of acquisition training, the last trial (out of 4) consisted of 60 s without the platform.

Series [6] concerns the target T1, mTORC1. Briefly: Immunoblot of liver, muscle and brain after four weeks, mTORC1. To be noted: rapamycin 8 mg/kg, compound 390 12 mg/kg i.p. every other day. Type of series: in vivo, male C57BL/6J mice. The procedure:
as §3
For western blotting, antibodies to phospho-Akt S473 (4060), Akt (4691), phospho-S6 ribosomal protein (2215), S6 ribosomal protein (2217), phospho-4E-BP1 S65 (9451) and 4E-BP1 (9452) were from Cell Signaling Technology.
Cells and tissue samples were lysed in cold RIPA buffer supplemented with phosphatase inhibitor and protease inhibitor cocktail tablets (PI88669, Fisher Scientific). Tissues were lysed in RIPA buffer using a FastPrep 24 (M.P. Biomedicals) with bead-beating tubes and ceramic beads (Mo-Bio Laboratories), and then centrifuged. Protein concentration was determined by Bradford assay (Pierce Biotechnology). Protein was separated by sodium dodecylsulphate-polyacrylamide gel electrophoresis (SDS-PAGE) on 8, 10, or 16% resolving gels (Life Technologies).

In series [7] the target is T2, mTORC1 (Homo sapiens, UniProt P42345+P62942).
T2 construct: endogenous in cells; host or cells: PC3 cells
Briefly: Western blot of PC3 cells treated with 100 nM compound, mTORC1 readout (pS6k/S6k). The format is cell-based. As to the method:
Protein concentrations were determined using the DC protein assay (Biorad). Equal amounts of protein were resolved by SDS-PAGE and transferred to nitrocellulose membrane using the Nu-Page system. […] The following day, blots were washed 3 times in TBST, incubated for 2 h with secondary antibodies, and finally washed an additional 3 times in TBST.

Sequence of mTORC2 complex (P26883 2-108 limits assumed, other chains not shown): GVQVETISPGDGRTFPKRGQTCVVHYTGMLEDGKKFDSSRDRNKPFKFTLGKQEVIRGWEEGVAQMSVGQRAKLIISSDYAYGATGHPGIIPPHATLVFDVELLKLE

For the compound `CO[C@H]1CC2CC[C@@H](C)[C@@](O)(O2)C(=O)C(=O)N2CCCC[C@H]2C(=O)O[C@H]([C@@H](C)CC2CCC(O)CC2)CC(=O)[C@@H](C)/C=C(\C)[C@H](O)[C@H](O)C(=O)[C@@H](C)C[C@H](C)/C=C/C=C/C=C/1C` (some centres unmarked) [compound 390, 27-O-Desmethyl-39-Desmethoxy Rapamycin], the “glucose response after glucose challenge (glucose intolerance)” value in series [1] is “indistinguishable from the vehicle-receiving control animals”. Further, the “mTORC1 inhibition in tissues” value on mTORC1 [2] (soleus muscle and liver) is given as “only partially inhibits mTORC1”. Further, the “mTORC1 inhibition in tissues” value at mTORC1 [2] (visceral fat, gastrocnemius muscle, pancreas, lung and kidney) is “strong inhibition of mTORC1”. Also, the “change of steady state glucose plasma levels” value in series [3] is “does not produce any substantial or statistically significant increase”. Further, in series [4], the “Beclin-1 activity (initiation phase of autophagy)” value is “nearly full restoration of Beclin-1 activity”; the “ULK1 phosphorylation (induction phase of autophagy)” value is “reduction of ULK1 phosphorylation”; the “accumulated LC3B-II levels (maturation and lysosomal clearance)” value is recorded as “substantial reduction”; the “accumulated p62 levels (maturation and lysosomal clearance)” value is “substantial reduction”. In addition, in [4], the “autophagy in the brain, all stages” value was “substantial and statistically significant upregulation”. Moreover, the “integrity of hepatic mTORC2 complex assembly” value at mTORC2 complex is recorded as “no effect upon hepatic mTORC2 assembly”. Moreover, the “fat mass (adiposity)” value in series [5] was “does not induce any increase of adiposity”. For the same compound, the “behavioral performance, total distance travelled during acquisition days” value in the series on Tg4510 mice is “strong trends of behavioral improvement”. Moreover, on mTORC1 [6], the “mTORC1 inhibition in liver, muscle and brain” value is reported as “significantly inhibits mTORC1 at approximately the same level as rapamycin”. For the same compound, the “mTORC1 inhibition (pS6k/S6k)” value on mTORC1 [7] is “full mTORC1 inhibition”.
